From article PMC11510561, “Synthesis, Urease Inhibition, Molecular Docking, and Optical Analysis of a Symmetrical Schiff Base and Its Selected Metal Complexes” (Molecules, 2024)
Read-outs that look alike come from different tables or passages of the source.

Columns and labels:
[1] = target: T1, urease (Canavalia ensiformis, UniProt P07374); settings: cited from earlier work
[2] = target: T1, urease; test: biochemical
Procedure: The indophenol method as outlined by Weatherburn was employed to assess urease activity by measuring the produced ammonia. Briefly, incubation of the reaction mixture was carried out at 37 degrees Celsius for half an hour on the microplate reader with 96-well plates. The operated mixture consisted of 20 microliters of the enzyme (from 5 units per ml of stock solution), 20 µL of the tested compound (5 mg/mL stock solution), and 50 microliters of the buffer solution. Thiourea was employed as a reference inhibitor, and percentage inhibition was calculated by […].

[3] = ref [36], read-out: IC50 (urease)

T1 sequence (P07374 whole entry, looked up): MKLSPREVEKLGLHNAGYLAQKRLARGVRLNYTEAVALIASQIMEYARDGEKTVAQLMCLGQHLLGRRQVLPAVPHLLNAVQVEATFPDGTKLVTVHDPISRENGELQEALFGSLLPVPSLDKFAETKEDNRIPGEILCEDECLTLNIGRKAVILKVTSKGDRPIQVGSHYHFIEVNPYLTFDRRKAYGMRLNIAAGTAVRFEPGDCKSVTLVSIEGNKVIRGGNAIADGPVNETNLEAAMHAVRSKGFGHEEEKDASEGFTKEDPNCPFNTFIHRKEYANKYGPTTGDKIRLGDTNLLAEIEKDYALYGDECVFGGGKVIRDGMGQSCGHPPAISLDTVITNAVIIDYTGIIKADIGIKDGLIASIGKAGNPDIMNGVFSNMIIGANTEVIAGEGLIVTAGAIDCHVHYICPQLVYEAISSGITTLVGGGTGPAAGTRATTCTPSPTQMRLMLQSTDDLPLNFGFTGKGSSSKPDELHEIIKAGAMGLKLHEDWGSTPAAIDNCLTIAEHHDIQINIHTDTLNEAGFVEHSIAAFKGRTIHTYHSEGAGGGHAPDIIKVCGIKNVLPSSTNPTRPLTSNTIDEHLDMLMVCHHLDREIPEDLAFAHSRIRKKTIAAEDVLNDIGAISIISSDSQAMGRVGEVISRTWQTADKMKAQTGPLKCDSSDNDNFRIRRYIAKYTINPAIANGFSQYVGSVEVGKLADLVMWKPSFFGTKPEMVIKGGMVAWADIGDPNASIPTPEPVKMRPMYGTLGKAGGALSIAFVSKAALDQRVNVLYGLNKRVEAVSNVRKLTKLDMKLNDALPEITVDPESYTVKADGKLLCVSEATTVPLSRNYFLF

In the case of `CC(=O)NO` [Acetohydroxamic acid], the IC50 ([1]; ref [37], read-out: IC50 (urease)) is given as 7.9 µM and the IC50 ([1]; unit inferred, ref [39], read-out: IC50 (urease), reference drug) is given as 32.1 µM.
With `COc1ccc(-c2n[nH]c(=O)n2/N=C/c2cccc(/C=N/n3c(-c4ccc(OC)cc4)n[nH]c3=O)n2)cc1` [Compound 6, 4,4′-((1E,1′E)-(Pyridine-2,6-diylbis(methanylylidene))bis(azanylylidene))bis(3-(4-methoxyphenyl)-1H-1,2,4-triazol-5(4H)-one)] the IC50 [2] was 21.8 ± 1.88 µM and the melting point was 181 to 183 °C.
In the case of `Nn1c(-c2ccncc2)n[nH]c1=S` [Compound C00005], the IC50 ([1]; read-out: IC50 (urease), ref [39]) is given as greater than 100 µM.
In the case of `Nn1c(SCC(=O)O)nnc1-c1ccccn1` [Compound H2L], the IC50 ([1]; read-out: IC50 (urease), ref [38]) is listed as 14.7 ± 1.4 µM.
For `Nn1c(SCC(=O)O)nnc1-c1ccncc1` [HL], the IC50 ([1]; read-out: IC50 (urease), ref [37]) is listed as 15.1 ± 2.22 µM.
For `NC(=O)NO` [Hydroxyurea], the IC50 [1, 3] is given as 100 µM.
For `NC(N)=S` [Thiourea], the IC50 ([2]; indophenol method, 37 degrees Celsius, half an hour, thiourea as reference, read-out: Urease Inhibition IC50) is listed as 20.7 µM, the IC50 ([1]; ref [35], read-out: IC50 (urease)) is listed as 22 µM and the IC50 [1, 3] is listed as 23 µM.
